Data set [1] deals with Pfeiffer (EZH2 A677G). In words: In vitro 50% growth inhibition (GI50), MTT/CCK8, Pfeiffer cells. It is filed as cell-based, Human. As to conditions: Homo sapiens, Pfeiffer, 240 h; Drug treatment for 10 days.
For data set [2], the system named is Karpas-422 (EZH2 Y641N). The data set is described as follows: In vitro 50% growth inhibition (GI50), MTT/CCK8, Karpas-422 cells. As to conditions: Homo sapiens, KARPAS-422, 144 h; Drug treatment for 6 days. It is filed as cell-based.
Data set [3] concerns SU-DHL-8 (EZH2 WT). In words: In vitro 50% growth inhibition (GI50), MTT/CCK8, SU-DHL-8 cells. It is filed as cell-based. Particulars: Homo sapiens, SU-DHL-8, 144 h; Drug treatment for 6 days.
Data set [4] in a line: In vivo pharmacokinetics in rats. As to conditions: SD rats. The method, then: Test Example 4 Study of In Vivo Pharmacokinetics of the Present Compounds in Rats
Male SD rats (Shanghai Sippr-BK Experimental Animal Co., Ltd) were purchased and kept in Shanghai University of Traditional Chinese Medicine animal center (approved by the ethics committee of Shanghai University of Traditional Chinese Medicine) for 7 days. The rats were randomly divided into 4 groups (˜220 g), 3 rats for each group. Animals were administered intravenously (iv) and orally (po). The rats in po group were starved for 12 hours before administration. After administration, blood was collected from the orbital venous plexus at 0 min (before administration), 2 min, 5 min, 15 min, 30 min, 1 h, 2 h, 4 h, 6 h, 8 h and 24 h. About 200 ul of blood was collected at each time point, and were collected in 1.5 ml centrifuge tube containing heparin sodium. The upper blood […] were collected by centrifugation (8000 rpm, 3 min) and stored at −80° C.
Preparation of test samples: 125.0 mg compound 34 or compound 35 was weighed and added with 4 ml ultrapure water, and 25 ul methanesulfonic acid was added with stirring. The mixture was further stirred until clear and transparent (pH ˜3.32). 1 ml of the above solution was added with 4 ml of ultra-pure water to obtain 5 mg/ml of compound 34 or compound 35 solution (pH=3.5).
Dose and mode of administration: single oral dose (100 mpk) and single intravenous dose (5 mpk).
Administration volume: 4 ml/kg (orally), 1 ml/kg (intravenously).
The plasma concentration of the compound was determined by LC-MS/MS (AB scexqtrap@4500 LCMS/MS system). Pharmacokinetic parameters were calculated by WinNonlin (a professional software). The experiment was repeated once.

For data set [5], the system named is EZH2 A677G mutant positive-expressing tumor cell line Pfeiffer. The data set is described as follows: In vivo growth inhibition, Pfeiffer subcutaneous transplantation model. Particulars: for Tumor volume: 200 mg/kg orally once a day. The text has this: Test Example 2 Determination of the in vivo growth inhibition activity of the present compounds on EZH2 A677G mutant positive-expressing tumor cell line Pfeiffer NOD/SCID mice were subcutaneously inoculated with human diffuse large cell B lymphoma lymphocyte Pfeiffer (ATCC) expressing EZH2 A677G mutant protein to establish a subcutaneous transplantation model of human B cell lymphoma.
Experimental animals: NOD/SCID mice, female, 9 weeks (weeks of age when tumor cell inoculation), average weight 20.3 g, 18 mice, were purchased from Shanghai Lingchang biotechnology co., Ltd. with animal certificate No.: 2002007656. The breeding environment was SPF grade.
Test samples: the present example compounds 34 (purity: 99.03%) and 35 (purity: 97.6%), solid powder, preserved at −20° C.
Pfeiffer cells were cultured in RPM1640 medium containing 10% of fetal bovine serum. Log-phase Pfeiffer cells were collected and resuspended with PBS to 1×10^8 cells per ml for subcutaneous inoculation in NOD/SCID mice.
All the mice were treated with Co60 irradiation at a dose of 200 rad the day before the inoculation, and 1×10^7 Pfeiffer cells were then subcutaneously inoculated at the right back, and the cells were resuspended in 1:1 PBS and Matrigel (0.1 ml/mouse). When the average tumor volume was 134 mm^3, the mice were randomly grouped according to tumor size. Tumor volume was calculated as: long diameter×short diameter^2/2. The day of tumor cells inoculation was defined as day 0. The test was divided into solvent control group and drug treatment group (compound 34 group and compound 35 group). 6 mice for each group were given orally once a day for a total of 4 weeks. Efficacy was assessed based on relative tumor growth inhibition value (TGI), and safety was assessed based on animal weight change and mortality.
Preparation of test samples: compounds 34 or 35 was weighed and mixed with ultrapure water, and methanesulfonic acid was added for clarification. The PH value was about 1.64 at this moment. 4M NaOH was then added to adjust the PH to 3.5 and bring to volume by ultrapure water, the final concentrations was 20 mg/ml. Determination standard: TGI (%): […].
T/C % refers to the relative value-added rate of tumor, that is, the percentage value of relative tumor volume or tumor weight for the treatment group and the control group at a certain point. T and C were the relative tumor volumes (RTV) of the treatment group and the control group at a specific point, respectively. The calculation formula is as follows: T/C%=TRTV/CRTV*100% TRTV: mean RTV of the treatment group; CRTV: mean RTV of solvent control group; RTV=Vt/V0, V0 was the tumor volume of the animal when grouping, Vt was the tumor volume of the animal after treatment. Statistical analysis: all test results were defined as mean tumor volume±SEM (mean standard error). Tumor volume data of 27 days after the start of treatment were selected for statistical analysis among different groups, and independent sample T test was used to compare whether there were significant differences in tumor volume between the treatment group and the control group. All data were analyzed using SPSS 18.0. P<0.05 was considered as significant difference.

[6] abbreviates: 200 mg/kg, 27th day after the start of treatment.
Where [7] appears, read: 200 mg/kg, 27 days after the start of treatment.

The results in this text go back to patent US11214561B2, “Histone methyltransferase EZH2 inhibitor, preparation method and pharmaceutical use thereof” (ANCUREALL PHARMACEUTICAL (SHANGHAI) CO., LTD., priority 2017, dated 2022).

What is called GI50 is the concentration at which growth is held to half of that of the control. High values mean less potent growth inhibition, low ones more potent growth inhibition. As a reminder, the bioavailability is the share of a dose that reaches the circulation, judged against a reference dose that is usually intravenous. Higher therefore signals much systemic uptake. For `C=CC(=O)N1CCC(N(CC)c2cc(-c3ccc(CN4CCOCC4)cc3)cc(C(=O)NCc3c(C)cc(C)[nH]c3=O)c2C)CC1` [Example 35, N-(4,6-dimethyl-2-oxo-1,2-dihydro-pyridin-3-ylmethyl)-5-[(1-acryloyl-piperidin-4-yl)-ethyl-amino]-4-methyl-4′-(morpholin-4-ylmethyl)-[1,1′-biphenyl]-3-carboxamide], the GI50 was 0.001 to 0.01 µM in data set [1], 0.01 to 0.1 µM in data set [2] and over 1 µM in data set [3]. Besides, in data set [4], the “bioavailability, in words” value was “good bioavailability”. This molecule also registered a bioavailability in data set [4] (male, rat, plasma, IV 5 mg/kg, PO 100 mg/kg, methanesulfonic acid aqueous solution) of 39.1%. The “body weight during the treatment” value in data set [5] (200 mg/kg dose) is “maintained a stable body weight”. Besides, in data set [5] (200 mg/kg dose), the tolerability entry is “well tolerated”. Also, the Tumor volume in data set [5] (Day 0 after the start of treatment) came out at 134 ± 9 mm^3; in data set [5] (Day 3 after the start of treatment) it was 324 ± 38 mm^3; in data set [5] (Day 7 after the start of treatment), 681 ± 72 mm^3; in data set [5] (Day 10 after the start of treatment) it was 635 ± 88 mm^3; in data set [5] (Day 14 after the start of treatment), 710 ± 87 mm^3; in data set [5] (Day 17 after the start of treatment), 751 ± 135 mm^3. The Tumor volume came out at 801 ± 152 mm^3 in data set [5] (Day 21 after the start of treatment); 1029 ± 193 mm^3 in data set [5] (Day 24 after the start of treatment); 1116 ± 196 mm^3 in data set [5] (Day 27 after the start of treatment, listed as Compound 35); 1116 mm^3 in data set [5] (Day 27 after the start of treatment, listed as compound 35). Also, the “RTV (x ± S), relative tumor volume” value in data set [5] (setting [6]) came to 8.2 ± 1.1. The “T/C (%), relative tumor volume” value in data set [5] (setting [6]) amounted to 57.7%. Besides, the “TGI (%), relative tumor volume” value in data set [5] (setting [6]) is 42.3%. In data set [5] (setting [7]), the “T/C (%), tumor weight” value was 51.3%. The TGI, tumor weight in data set [5] (setting [7]) is 48.7%. Moreover, the “Tumor weight (mg) (x ± S)” value in data set [5] (setting [7]) is listed as 580 ± 99 mg. In addition, in data set [5] (200 mg/kg, versus solvent control group), the “anti-tumor effect, in words” value was “significant anti-tumor effects”.
